Key:
PDGF receptor = target: T1, PDGF receptor (Mus musculus, UniProt P05622); assay: Western blot for phosphorylation of ERK in C2C12 cells (PDGF receptor activation); type: cell-based; conditions: for phosphorylation of ERK (pERK): 10 ng/ml PDGF, 1 μg/ml peptide, vs no treatment and AG1296+PDGF−AB controls
T1 construct: Phosphorylation of ERK following treatment of C2C12 Cells with PDGF and JC5; endogenous in cells; host or cells: C2C12 mouse myoblasts
Description: FIG. 5. Phosphorylation of ERK following treatment of C2C12 Cells with PDGF and JC5. Western blots for total (ERK) and phosphorylated ERK (pERK) at 42 and 44 kDa show an increase in phosphorylation following treatment with 10 ng/ml PDGF−BB and 1 μg/ml of JC5. FIG. 6. Phosphorylation of ERK following treatment of C2C12 Cells with PDGF and JC5a. Western blots for total (ERK) and phosphorylated ERK (pERK) at 42 and 44 kDa show an increase in phosphorylation 10 minutes post treatment with 10 ng/ml PDGF−BB and 1 μg/ml of novel mimetic peptide JC5a. JC5a maintained this increased phosphorylation of ERK at 30 minutes post treatment. PDGF receptor activation takes place via autophosphorylation of tyrosine […] residues at key sites throughout the intracellular domain. Autophosphorylation engages different signaling pathways, including ERK (MAPK) which participates in proliferation, cell survival, angiogenesis, and chemotactic activity of cells. Phosphorylation of ERK indicates successful activation of the PDGF receptor.

[1] = tested on: C3H10T½ mouse embryonic fibroblasts; assay: EdU proliferation assay (flow cytometry); type: cell-based; conditions: C3H10T½ cells, 1% FBS; for stimulation of proliferation relative to 1% FBS: 24 hr, 20 ng/ml PDGF, 2 μg/ml peptides; for stimulation of the PDGF ligand/receptor pathway inferred from inhibition of EdU levels by AG1296 cotreatment: cotreatment with 10 μM AG1296
Description: FIG. 8. Proliferation of C3H10T½ Cells Following Treatment with PDGF and Novel PDGF Mimetic Peptides. Cultured C3H10T½ mouse embryonic fibroblast cells were treated with 20 ng/ml recombinant PDGF−AB or PDGF−BB protein ligands, and 2 μg/ml of novel PDGF mimetics JC5 or JC5a for 24 hr, in the presence of 1% fetal bovine serum (FBS). Percent proliferating cell was determined after a 2 hr pulse with nucleotide analogue EdU at the end of the incubation period. […] Co-treatment of protein/peptides with 10 μM of PDGF receptor antagonist, AG1296, confirmed that PDGF-BB-stimulated proliferation occurred via the PDGF ligand/receptor pathway. […] Error bars represent ±SD, n=3. Statistical analysis was using One-Way Anova: * p<0.05; ** p<0.01; *** p<0.001; **** p<0.0001. The mitotic effects of PDGF mimetic peptides JC5 and JC5a were tested using cultured C3H10T½ mouse embryonic fibroblasts. Proliferation was assayed after a pulse of nucleotide analogue 5-ethynyl-2′-deoxyuridine (EdU) and fluorescent detection using flow cytometry. Cells were treated with 20 ng/ml PDGF−BB or PDGF−AB, and 2 μg/ml of peptides JC5 or JC5a, in the presence of 1% fetal bovine serum (FBS) and DMEM for 24 hr. 10% FBS was used as a positive control, and co-treatments with specific PDGF receptor antagonist, AG1296, was used to ascertain whether proliferation occurred via the PDGF ligand/receptor pathway. Assays were performed in biological triplicate.

C57BL6/J mice = assay: Murine model of acute myocardial infarction (permanent LAD occlusion), echocardiography and heart weight/tibia length; type: in vivo, mouse; conditions: for average day 2 to day 28 Δ ejection fraction: change from day 2 to day 28; for day 28 ejection fraction / decrease in ESV versus PBS (MI) cohort (mean diff.) / mean heart weight/tibia length / mean end systolic volume (ESV) at day 28 / mean end diastolic volume (EDV) at day 28: mice; for day 28 ejection fraction: 28 days post MI, 60 μg/kg PDGF−AB or 32.50 mg/kg peptide via implanted minipump, mean (±SD), PBS 26.89%; for decrease in ESV versus PBS (MI) cohort (mean diff.) / mean heart weight/tibia length / mean end systolic volume (ESV) at day 28 / mean end diastolic volume (EDV) at day 28: day 28 post MI; for mean heart weight/tibia length: PBS 0.01913; for mean end systolic volume (ESV) at day 28 / mean end diastolic volume (EDV) at day 28: minipump; for mean end systolic volume (ESV) at day 28: PBS 116.6 μL; for mean end diastolic volume (EDV) at day 28: PBS 155.9 μL
From the text: FIG. 9: Improved Cardiac function at Day 28 Post Myocardial Infarction. […] C) A decrease in end diastolic volumes was also observed in PDGF−AB (p=0.0016) and JC5 (p=0.0185) treated mice versus PBS. […] E) Timeline of mean EF per treatment group. Baseline indicates the pre-infarct EF per group. Day 2 and day 28 indicates days post infarct. A-C) Error bars represent ±SD. D) Data presented as median ±minimum and maximum values. One way ANOVA comparing all groups to the PBS vehicle control group (n=10/11).
FIG. 11: Decreased Heart Weight/Tibia Length in Mice Treated with JC5. […] Error bars represent ±SD.
Cardiac function was monitored using echocardiography with a post MI baseline at day 2 and a day 28 end point followed by tissue collection and calculation of heart weight divided by tibia length. Mice were randomised into treatment groups receiving either 60 μg/kg of the positive control recombinant human PDGF−AB, 32.50 mg/kg of novel mimetic peptide JC5, 32.50 mg/kg of novel mimetic peptide JC5a, or phosphate buffered saline (PBS) as a vehicle control, via implanted minipump, at the time of infarction. In addition to this sham controls were included using non-infarcted healthy mice receiving either 32.50 mg/kg of novel mimetic peptide JC5 or 32.50 mg/kg of novel mimetic peptide JC5a.
Left ventricular ejection fraction (LVEF) is directly proportionate to the difference between left ventricle end diastolic volume and the left ventricular end systolic volume (LVEDV-LVESV) and inversely proportionate to left ventricular end diastolic volume (LVEDV). The value is created by the following equation LVEF=(LVEDV-LVESV)/LVEDV. Increased end diastolic volume (EDV) indicates possible dilation of the ventricle whilst increased end systolic volume (ESV) indicates a possible decrease in contractile function. In mice treated with positive control PDGF−AB (MI) and novel mimetic peptide JC5 (MI) there was a significant decrease in both ESV and EDV at day 28 when compared to the vehicle control, PBS (MI), cohort. The decreased ESV of the PDGF−AB (MI) cohort at day 28 aligned with what was expected of the positive control with a mean ESV of 55.04 μL (±23.66), […] (mean diff.) less than the PBS (MI) cohort (p=0.0003). […] These were both a significant decrease from the PBS (MI) cohort with a mean EDV of 155.9 μL (±47.15) (JC5 p=0.0185, PDGF−AB p=0.0016).

T1 sequence (P05622 32-1098): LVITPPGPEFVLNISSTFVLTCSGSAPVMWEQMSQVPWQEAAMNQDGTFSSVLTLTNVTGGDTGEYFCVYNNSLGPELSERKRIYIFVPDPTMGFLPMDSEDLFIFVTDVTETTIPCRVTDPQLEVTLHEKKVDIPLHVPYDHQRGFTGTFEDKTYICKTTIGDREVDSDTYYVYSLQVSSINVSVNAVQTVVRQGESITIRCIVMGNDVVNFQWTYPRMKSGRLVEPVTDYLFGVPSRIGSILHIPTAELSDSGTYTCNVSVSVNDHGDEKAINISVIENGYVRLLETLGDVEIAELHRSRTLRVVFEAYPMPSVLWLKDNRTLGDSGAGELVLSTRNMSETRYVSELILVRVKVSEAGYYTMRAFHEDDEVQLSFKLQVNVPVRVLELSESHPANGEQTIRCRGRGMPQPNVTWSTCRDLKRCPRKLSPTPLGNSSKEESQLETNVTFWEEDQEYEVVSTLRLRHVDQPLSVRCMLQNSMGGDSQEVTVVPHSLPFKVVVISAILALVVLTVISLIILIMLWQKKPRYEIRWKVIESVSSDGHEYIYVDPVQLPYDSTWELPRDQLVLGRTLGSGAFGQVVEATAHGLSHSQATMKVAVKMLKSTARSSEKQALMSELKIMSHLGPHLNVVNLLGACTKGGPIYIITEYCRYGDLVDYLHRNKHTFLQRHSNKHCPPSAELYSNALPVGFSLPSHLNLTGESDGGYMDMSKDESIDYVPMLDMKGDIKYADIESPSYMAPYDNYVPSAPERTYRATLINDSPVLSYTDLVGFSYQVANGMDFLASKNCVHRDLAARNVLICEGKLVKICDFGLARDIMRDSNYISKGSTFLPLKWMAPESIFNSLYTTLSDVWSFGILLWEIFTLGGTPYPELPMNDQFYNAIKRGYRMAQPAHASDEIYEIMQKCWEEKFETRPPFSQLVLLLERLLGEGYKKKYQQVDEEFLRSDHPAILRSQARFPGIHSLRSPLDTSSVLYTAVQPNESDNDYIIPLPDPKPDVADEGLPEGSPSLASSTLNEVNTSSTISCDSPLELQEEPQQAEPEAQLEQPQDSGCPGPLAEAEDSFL

Molecule	phosphorylation of ERK (pERK) (PDGF receptor)	phosphorylation of ERK (pERK) at 30 minutes post treatment (PDGF receptor; 1 μg/ml JC5a, 30 minutes)	stimulation of proliferation relative to 1% FBS [1]	average day 2 to day 28 Δ ejection fraction (C57BL6/J mice; mice post MI) [%]	day 2 to day 28 change in ejection fraction greater than PBS (MI) (mean diff.) (C57BL6/J mice; mice post MI, vs PBS vehicle control) [%]	day 28 ejection fraction (C57BL6/J mice) [%]	stimulation of the PDGF ligand/receptor pathway inferred from inhibition of EdU levels by AG1296 cotreatment [1]	decrease in ESV versus PBS (MI) cohort (mean diff.) (C57BL6/J mice) [µL]	mean heart weight/tibia length (C57BL6/J mice)	mean end systolic volume (ESV) at day 28 (C57BL6/J mice) [µL]	mean end diastolic volume (EDV) at day 28 (C57BL6/J mice) [µL]
CCCCCCCCCCCCCCCC(=O)NCCCC[C@H](NC(=O)[C@H](CCC(=O)O)NC(=O)[C@H](Cc1ccc(O)cc1)NC(=O)[C@@H](CCC(=O)O)NC(=O)CCOCCOCCOCCNC(=O)CCOCCOCCOCCNC(=O)[C@@H](CCCCN)NC(=O)[C@@H](CCCCN)NC(=O)[C@@H](CCCNC(=N)N)NC(=O)[C@@H](NC(=O)[C@@H](NC(=O)[C@H](CCC(=O)O)NC(=O)[C@@H](NC(=O)[C@H](CCCCN)NC(=O)[C@@H](CCCNC(=N)N)NC(=O)[C@H](NC(=O)[C@H](N)CSSC[C@@H](N)C(=O)N[C@@H](C(=O)N[C@H](CCCNC(=N)N)C(=O)N[C@@H](CCCCN)C(=O)N[C@H](C(=O)N[C@@H](CCC(=O)O)C(=O)N[C@H](C(=O)N[C@H](C(=O)N[C@H](CCCNC(=N)N)C(=O)N[C@H](CCCCN)C(=O)N[C@H](CCCCN)C(=O)NCCOCCOCCOCCC(=O)NCCOCCOCCOCCC(=O)N[C@H](CCC(=O)O)C(=O)N[C@@H](Cc1ccc(O)cc1)C(=O)N[C@@H](CCC(=O)O)C(=O)N[C@@H](CCCCNC(=O)CCCCCCCCCCCCCCC)C(=O)N[C@@H](CCC(=O)O)C(=O)N[C@@H](Cc1ccc(O)cc1)C(=O)N[C@@H](CCC(=O)O)C(N)=O)C(C)C)[C@H](C)CC)[C@@H](C)CC)C(C)C)C(C)C)[C@@H](C)CC)[C@H](C)CC)C(C)C)C(=O)N[C@@H](CCC(=O)O)C(=O)N[C@@H](Cc1ccc(O)cc1)C(=O)N[C@@H](CCC(=O)O)C(N)=O [JC5a, PDGF Loop III dimer USA dimer (CVRKIEIVRKK)2(Peg3)2(EYEK(Palm)EYE)2-C′]	phosphorylation of ERK (pERK) can be seen	preserved phosphorylation of ERK (pERK)	did not significantly stimulate proliferation	10.82	18.02	39.24	–	–	–	–	–
PDGF Loop III dimer HSA (CVRKIEIVRKK)2(Peg3)2EYEK(Palm)EYE-C′ [JC5]	phosphorylation of ERK (pERK) can be seen	–	did not significantly stimulate proliferation	6.686	–	42.06	weak stimulation of the PDGF ligand/receptor pathway	49.58	0.01462	67.01	108.6
PDGF−AB: recombinant human PDGF−AB, AB heterodimer of recombinant PDGF, positive control	pERK is induced by PDGF−BB but not PDGF−AB	–	did not significantly stimulate proliferation	7.104	–	43.44	weak stimulation of the PDGF ligand/receptor pathway	61.54	0.01344	55.04	93.75
